Laboratory results published in article PMC4297530 (Biological psychiatry, 2014).

Legend:
[1] = test system: plasma corticosterone (HPA axis); test: Combined DEX/CRF test, plasma corticosterone; type: in vivo, mouse
[2] = test system: GR translocation in RN46A-B14 cells; test: DEX-induced GR-GFP translocation, high-content imaging; type: cell-based, rat; conditions: 2.5 μM for 1 hour, then 1 μM DEX 30 min, p<0.05 vs. vehicle
[3] = test system: Hsp90 / α-tubulin acetylation and Hsp90-FKBP51/52 association; test: Co-immunoprecipitation and acetylation blots in RN46 serotonin cell line; type: cell-based, rat; conditions: 2.5 uM, RN46 cells, vs vehicle
[4] = test system: histone acetylation in brain; conditions: at the dose used in present study (5 mg/kg i.p.); cited from earlier work

## O=C(NO)c1cnc(NC2(c3ccccc3)CC2)nc1 [ACY-738]
[1]; chronic ACY-738 treatment, data not shown
  CORT response following DEX/CRF challenge: did not alter
[2]
  GR translocation induced by dexamethasone: significantly reduced
[3]; co-IP
  association of Hsp90 with FKBP51: increased association
  interaction of Hsp90 with FKBP52: reduced interaction
[3]; input samples
  acetylation of α-tubulin: increase
[3]
  acetylation of Hsp90 at lysine 294: increased acetylation
[4]
  histone acetylation in brain: does not elevate

## CN1CCc2c(c3ccccc3n2Cc2ccc(C(=O)NO)cc2)C1 [Tubastatin A]
[2]
  GR translocation induced by dexamethasone: significantly reduced

## C[C@@H]1C[C@H]2[C@@H]3CCC4=CC(=O)C=C[C@]4(C)[C@@]3(F)[C@@H](O)C[C@]2(C)[C@@]1(O)C(=O)CO [dexamethasone]
[1]; 6 hours after DEX 0.05 mg/kg, CSDS resilient mice
  percent change in plasma corticosterone, resilient mice: −34%
[1]; 6 hours after DEX 0.05 mg/kg, undefeated control mice
  percent change in plasma corticosterone, control mice: −13%
